{
  "source": "patent US20110070258A1",
  "about": "“METHOD OF SLOWING THE AGING PROCESS BY ACTIVATING SIRTUIN ENZYMES” (Polifenoles Naturales, S.L., priority 2009, published 2011)",
  "key": {"[1]": {"assay": "Energy expenditure by indirect calorimetry in obese subjects (dose-response clinical trial)", "type": "in vivo, human", "details": "for Energy Expenditure, Baseline: n = 4; for Energy Expenditure, Baseline / Energy Expenditure, 2 weeks / Energy Expenditure, 5 weeks / Energy Expenditure, 10 weeks / Energy Expenditure, 16 weeks / Total Energy Expenditure, to (16 weeks) / Total Energy Expenditure, From (baseline) / Change in Total Energy Expenditure, Net: NAFLD; for Change in Total Energy Expenditure, Net: baseline to 16 weeks", "procedure": "Energy expenditure rate (EER) was measured in patients by indirect calorimetry. Oxygen was measured with an electrochemical oxygen sensor, and carbon dioxide was measured with an infrared carbon dioxide sensor (Ametec Carbon Dioxide Analyzer). Before each measurement, the instrument was calibrated with a mixture of O2 and CO2 gases. Rates of oxygen consumption (O2) and carbon dioxide production (CO2) were calculated and printed out at 1-min intervals. Energy expenditure was derived from O2 and CO2 values.\nObese subjects diagnosed with NAFLD and with apparently healthy liver (HL) were matched in pairs based on age, body weight and body fat mass and were randomly divided into Experimental NAFLD group (n=36), Placebo NAFLD (n=36), Experimental HL (n=19) and Placebo-HL group (n=19). Subjects were randomly assigned, in equal numbers, to the phytomedicine experimental groups and the Placebo control group, using the Simple Randomization Procedure. Their daily dietary intake was restricted to 1800±100 kcals, of which 50±5% was in the form of carbohydrates, 30±5% from protein, and 20±5% from fat. Subjects were also instructed to consume all the foods and beverages designated by dieticians and provided by the Institute, and to eat no other food or high calories beverages. […] During the clinical phase, subjects were required to visit a designated hospital three times a week for physiological and biochemical analysis. Institute provided all foods and beverages by designated dieticians and labeled as B, L, and D for breakfast, lunch and dinner, respectively.\nThe brown marine vegetable extract was suspended in 100 mg cold-pressed pomegranate seed oil. The pomegranate seed oil was standardized to contain a minimum of 70% punicic acid, for a total weight of 200 mg/capsule. The content of fucoxanthin in Experimental Sample (Xanthigen) was analyzed using high performance liquid chromatography method, and the fatty acids were analyzed by Gas Chromatography method. The HPLC profile of the brown marine vegetable extract is shown in FIG. 2A, along with an HPLC chromatogram of pure fucoxanthin for comparison in FIG. 2B.\nEnergy expenditure (EE) and substrate oxidations were measured by indirect calorimetry as described previously (Ranneries et al., 1998). Oxygen was measured with an electrochemical oxygen sensor, and carbon dioxide was measured by an infrared carbon dioxide sensor (Ametec Carbon Dioxide Analyzer). Calculations of EE and substrate oxidation rates were performed as previously described (Astrup et al., 1991). Protein oxidation was assumed to be constant and amounting to 15% of EE. […] The reliability was assessed by the coefficient of variation on resting energy expenditure repeated every week."}, "Sirt1": {"system": "Sirt1", "assay": "Sirt1 expression by Western Blot in differentiated 3T3-L1 adipocytes", "type": "cell-based, mouse", "procedure": "The effect of fucoxanthin/punicic acid mixtures on Sirt1 expression in murine cells was studied. Mouse 3T3-L1 pre-adipocytes purchased from the American Type Culture Collection (Rockville, Md.) were grown in Dubecco's modified Eagle's medium (DMEM) (Gibco BRL, Grand Island, N.Y.) supplemented with 2 mM glutamine (GIBCO BRL), 1% penicillin/streptomycin (10000 units of penicillin/mL and 10 mg streptomycin/mL) and 10% fetal bovine serum at 37° C. under a humidified 5% CO2 atmosphere. For differentiation of 3T3-L1 pre-adipocytes, cells were seeded into 6-well culture plates (2×10^4/mL) and cultured as described above. […] The fucoxanthin extract used in this study of Sirt1 expression in murine cells was an extract of the complete plant of Undaria […]. The extract contains 0.8% by weight fucoxanthin and 30% by weight marine vegetable oil. The fucoxanthin extract used may further contain ≦10.0 wt. % palm oil. The pomegranate seed oil used in this study contains 70 wt. % punicic acid, and is an extract of the seeds of the Punica granatum plant. […], the fucoxanthin/punicic acid mixture used in this study, contains 50 wt. % of the fucoxanthin extract, and 50 wt. % of the pomegranate seed oil. […] The total proteins are measured by Bio-Rad Protein Assay (Bio-Rad Laboratories, Munich, Germany). […]"}},
  "data": [
    {"compound": "CC(=O)O[C@H]1CC(C)(C)C(=C=C/C(C)=C/C=C/C(C)=C/C=C/C=C(C)/C=C/C=C(\\C)C(=O)C[C@@]23O[C@]2(C)C[C@@H](O)CC3(C)C)[C@](C)(O)C1", "note": "[Fucoxanthin, fucoxanthin]", "values": [
      {"measurement": "increase in daily energy expenditure rate", "setting": "[1]; 25 mg fucoxanthin alone", "value": "1152 ± 290", "unit": "kJ/day"},
      {"measurement": "Energy Expenditure, Baseline", "setting": "[1]; Fucoxanthin 10 mg per day", "value": "5.82 ± 0.18", "unit": "kJ/min"},
      {"measurement": "Energy Expenditure, 2 weeks", "setting": "[1]; Fucoxanthin 10 mg per day", "value": "5.69 ± 0.21", "unit": "kJ/min"},
      {"measurement": "Energy Expenditure, 5 weeks", "setting": "[1]; Fucoxanthin 10 mg per day", "value": "5.93 ± 0.15", "unit": "kJ/min"},
      {"measurement": "Energy Expenditure, 10 weeks", "setting": "[1]; Fucoxanthin 10 mg per day", "value": "5.69 ± 0.21", "unit": "kJ/min"},
      {"measurement": "Energy Expenditure, 16 weeks", "setting": "[1]; Fucoxanthin 10 mg per day", "value": "5.98 ± 0.18", "unit": "kJ/min"},
      {"measurement": "Total Energy Expenditure, to (16 weeks)", "setting": "[1]; Fucoxanthin 10 mg per day", "value": 8611, "unit": "kJ/24 h"},
      {"measurement": "Total Energy Expenditure, From (baseline)", "setting": "[1]; Fucoxanthin 10 mg per day", "value": 8381, "unit": "kJ/24 h"},
      {"measurement": "Change in Total Energy Expenditure, Net", "setting": "[1]; Fucoxanthin 10 mg per day, NS vs placebo", "value": "Net 230 ± 147 kJ/24 h"},
      {"measurement": "Energy Expenditure, Baseline", "setting": "[1]; Fucoxanthin 15 mg per day", "value": "5.85 ± 0.27", "unit": "kJ/min"},
      {"measurement": "Energy Expenditure, 2 weeks", "setting": "[1]; Fucoxanthin 15 mg per day", "value": "5.89 ± 0.14", "unit": "kJ/min"},
      {"measurement": "Energy Expenditure, 5 weeks", "setting": "[1]; Fucoxanthin 15 mg per day", "value": "5.98 ± 0.17", "unit": "kJ/min"},
      {"measurement": "Energy Expenditure, 10 weeks", "setting": "[1]; Fucoxanthin 15 mg per day", "value": "6.11 ± 0.21", "unit": "kJ/min"},
      {"measurement": "Energy Expenditure, 16 weeks", "setting": "[1]; Fucoxanthin 15 mg per day", "value": "6.39 ± 0.17", "unit": "kJ/min"},
      {"measurement": "Total Energy Expenditure, to (16 weeks)", "setting": "[1]; Fucoxanthin 15 mg per day", "value": 9202, "unit": "kJ/24 h"},
      {"measurement": "Total Energy Expenditure, From (baseline)", "setting": "[1]; Fucoxanthin 15 mg per day", "value": 8424, "unit": "kJ/24 h"},
      {"measurement": "Change in Total Energy Expenditure, Net", "setting": "[1]; Fucoxanthin 15 mg per day, p < 0.05 vs placebo", "value": "Net 778 ± 260 kJ/24 h"},
      {"measurement": "Energy Expenditure, Baseline", "setting": "[1]; Fucoxanthin 25 mg per day", "value": "5.92 ± 0.16", "unit": "kJ/min"},
      {"measurement": "Energy Expenditure, 2 weeks", "setting": "[1]; Fucoxanthin 25 mg per day", "value": "6.02 ± 0.23", "unit": "kJ/min"},
      {"measurement": "Energy Expenditure, 5 weeks", "setting": "[1]; Fucoxanthin 25 mg per day", "value": "5.92 ± 0.27", "unit": "kJ/min"},
      {"measurement": "Energy Expenditure, 10 weeks", "setting": "[1]; Fucoxanthin 25 mg per day", "value": "6.29 ± 0.31", "unit": "kJ/min"},
      {"measurement": "Energy Expenditure, 16 weeks", "setting": "[1]; Fucoxanthin 25 mg per day", "value": "6.72 ± 0.22", "unit": "kJ/min"},
      {"measurement": "Total Energy Expenditure, to (16 weeks)", "setting": "[1]; Fucoxanthin 25 mg per day", "value": 9677, "unit": "kJ/24 h"},
      {"measurement": "Total Energy Expenditure, From (baseline)", "setting": "[1]; Fucoxanthin 25 mg per day", "value": 8525, "unit": "kJ/24 h"},
      {"measurement": "Change in Total Energy Expenditure, Net", "setting": "[1]; Fucoxanthin 25 mg per day, p < 0.05 vs placebo", "value": "Net 1152 ± 290 kJ/24 h"},
      {"measurement": "Energy Expenditure, Baseline", "setting": "[1]; Fucoxanthin 50 mg per day", "value": "6.04 ± 0.24", "unit": "kJ/min"},
      {"measurement": "Energy Expenditure, 2 weeks", "setting": "[1]; Fucoxanthin 50 mg per day", "value": "5.91 ± 0.31", "unit": "kJ/min"},
      {"measurement": "Energy Expenditure, 5 weeks", "setting": "[1]; Fucoxanthin 50 mg per day", "value": "6.32 ± 0.22", "unit": "kJ/min"},
      {"measurement": "Energy Expenditure, 10 weeks", "setting": "[1]; Fucoxanthin 50 mg per day", "value": "6.92 ± 0.31", "unit": "kJ/min"},
      {"measurement": "Energy Expenditure, 16 weeks", "setting": "[1]; Fucoxanthin 50 mg per day", "value": "7.37 ± 0.35", "unit": "kJ/min"},
      {"measurement": "Total Energy Expenditure, to (16 weeks)", "setting": "[1]; Fucoxanthin 50 mg per day", "value": 10613, "unit": "kJ/24 h"},
      {"measurement": "Total Energy Expenditure, From (baseline)", "setting": "[1]; Fucoxanthin 50 mg per day", "value": 8698, "unit": "kJ/24 h"},
      {"measurement": "Change in Total Energy Expenditure, Net", "setting": "[1]; Fucoxanthin 50 mg per day, p < 0.001 vs placebo", "value": "Net 1915 ± 246 kJ/24 h"},
      {"measurement": "EER", "setting": "[1]; fucoxanthin dose of 1.6 mg per se", "value": "not effective per se"},
      {"measurement": "minimum effective dose (increase of EER), stand alone", "setting": "[1]; obese subjects, stand alone", "value": 2.4, "unit": "mg"}
    ]},
    {"compound": "CCCC\\C=C/C=C/C=C\\CCCCCCCC(=O)O", "note": "[punicic acid, 9-cis, 11-trans conjugated linolenic acid (9c,11t,13c-CLNA)]", "values": [
      {"measurement": "Effect on Sirt1 protein levels / expression", "setting": "Sirt1", "value": "suppresses Sirt1 expression"}
    ]}
  ]
}
